According to patent publication US11690838B2, “Therapeutic agent for fibrosis” (TAIHO PHARMACEUTICAL CO., LTD., priority 2015, dated 2023):

Tested on: Bleomycin-Induced Mouse Pathology (Lung Fibrosis) Model
Test: Suppression effect on bleomycin-induced mouse pathology (lung fibrosis) model
Type: in vivo
Details: C57BL mice, bleomycin intratracheal, every day for 35 days; for hydroxyproline amount of lung tissues compared to the control group (pathological condition): FIG. 1; for score of abnormal accumulation of a fibrous tissue in lung tissues (Ashcroft's method) compared to the control group: FIG. 2
Description: Test Example 1: Suppression Effect on Bleomycin-Induced Mouse Pathology (Lung Fibrosis) Model
Mice (C57BL, 6 weeks old) were anesthetized by intraperitoneally administrating pentobarbital (50 mg/kg/day), and then bleomycin (20 μg/25 μL per mouse) was intra-tracheally sprayed by a sprayer. A week later, the mice were anesthetized by inhalation of isoflurane, 0.2 mL of blood was taken from the eye orbit of the mice. The blood level of a surfactant protein-D (SP-D) was measured. The mice were divided into groups (9 mice) such that the groups have an equal average SP-D value.
The compound of the present invention was orally administered at each of doses of 100 and 200 mg/kg/day, every day for 35 days. In order to confirm whether a pathological model was established, an untreated group (Normal group) and a Sham group were set up. To the mice of the Sham group, physiological saline was intratracheally sprayed in place of bleomycin. The next day after completion of the final administration, the mice were anesthetized by inhalation of isoflurane and euthanized. Thereafter, the lungs were excised out and subjected to pathological analysis for tissues. Abnormal accumulation of a fibrous tissue was evaluated and the amounts of hydroxyproline in the tissues were measured. The abnormal accumulation of a fibrous tissue was evaluated by using Ashcroft's method (J Clin Pathol 1988; 41: 467-470).
The hydroxyproline amounts of lung tissues of individual groups are shown in FIG. 1 and scores of abnormal accumulation of a fibrous tissue in the lung tissues are shown in FIG. 2. […] From this, it was determined that abnormal accumulation of a fibrous tissue in the lung tissue in mice was induced by bleomycin treatment and pathological models are established.

CNC(=O)c1cc2c(Oc3ccc(NC(=S)NC(=O)Cc4ccccc4)cc3F)ccnc2cc1OC [the compound of the present invention, 4-[2-Fluoro-4-[[[(2-phenylacetyl)amino]thioxomethyl]amino]-phenoxy]-7-methoxy-N-methyl-6-quinolinecarboxamide]
significantly low: hydroxyproline amount of lung tissues compared to the control group (pathological condition) (100 mg/kg/day orally) | score of abnormal accumulation of a fibrous tissue in lung tissues (Ashcroft's method) compared to the control group (100 mg/kg/day orally) | hydroxyproline amount of lung tissues compared to the control group (pathological condition) (200 mg/kg/day orally) | score of abnormal accumulation of a fibrous tissue in lung tissues (Ashcroft's method) compared to the control group (200 mg/kg/day orally)
